Laboratory results: US8648208B2, “Activating agent for peroxisome proliferator activated receptor” (Nippon Chemiphar Co. Ltd., priority 2008, dated 2014)
Like-named read-outs stand apart in the source and are kept apart here.

How the values were obtained:
Type in all cases: cell-based
hPPARγ (LBD) = molecular target: T1, hPPARγ (LBD) (Homo sapiens, UniProt P37231); test: PPAR activating effect, GAL4-hPPARγ LBD luciferase reporter transfection in CV-1 cells
T1 construct: A receptor expression plasmid (pSG5-GAL4-hPPARα or γ or δ (LBD)); GAL4 (fusion partner); expressed in transfected cells; host or cells: CV-1 cells (ATCC)
T1 sequence (P37231 238-503 limits assumed): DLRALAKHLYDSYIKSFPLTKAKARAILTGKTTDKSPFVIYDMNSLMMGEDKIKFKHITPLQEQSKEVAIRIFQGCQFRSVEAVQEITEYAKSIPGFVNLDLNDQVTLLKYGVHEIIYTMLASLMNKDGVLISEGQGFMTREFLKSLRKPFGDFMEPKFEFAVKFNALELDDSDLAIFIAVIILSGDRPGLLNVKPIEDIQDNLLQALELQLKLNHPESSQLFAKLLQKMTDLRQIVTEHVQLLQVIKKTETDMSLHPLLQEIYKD

hPPARα (LBD) = molecular target: T2, hPPARα (LBD) (Homo sapiens, UniProt Q07869); test: PPAR activating effect, GAL4-hPPARα LBD luciferase reporter transfection in CV-1 cells; conditions: for PPAR activity α (relative value to control compound): 100% = GW-590735 10^-6 M
T2 construct: A receptor expression plasmid (pSG5-GAL4-hPPARα or γ or δ (LBD)); GAL4 (fusion partner); expressed in transfected cells; host or cells: CV-1 cells (ATCC)
T2 sequence (Q07869 239-466 limits assumed): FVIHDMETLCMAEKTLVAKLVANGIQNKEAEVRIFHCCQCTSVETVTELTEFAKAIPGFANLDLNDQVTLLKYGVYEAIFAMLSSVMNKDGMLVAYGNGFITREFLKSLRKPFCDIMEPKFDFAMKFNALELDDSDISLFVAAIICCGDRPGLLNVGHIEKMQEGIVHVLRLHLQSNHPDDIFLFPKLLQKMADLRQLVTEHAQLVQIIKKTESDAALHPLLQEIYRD

hPPARδ (LBD) = molecular target: T3, hPPARδ (LBD) (Homo sapiens, UniProt Q03181); test: PPAR activating effect, GAL4-hPPARδ LBD luciferase reporter transfection in CV-1 cells; parameters: activation: dose or concentration left out as unconfirmed; conditions: for activation / activation at 0.1 µM: CV-1, 40 h, read-out: PPAR activity δ (relative value to control compound)
T3 construct: A receptor expression plasmid (pSG5-GAL4-hPPARα or γ or δ (LBD)); GAL4 (fusion partner); expressed in transfected cells; host or cells: CV-1 cells (ATCC)
T3 sequence (Q03181 211-439 limits assumed): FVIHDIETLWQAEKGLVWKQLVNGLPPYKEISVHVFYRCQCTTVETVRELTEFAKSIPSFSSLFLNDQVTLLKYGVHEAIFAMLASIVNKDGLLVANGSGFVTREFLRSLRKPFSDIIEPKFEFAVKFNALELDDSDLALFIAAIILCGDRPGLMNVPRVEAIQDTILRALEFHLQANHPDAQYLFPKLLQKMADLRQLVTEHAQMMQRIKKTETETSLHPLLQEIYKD

[1] = Table 24, 100% = Rosiglitazone 10^-5 M, CV-1 cells, approx. 40 h
[2] = Table 24, CV-1 cells, approx. 40 h
[3] = Table 26, test compound 10^-7 M, 100% = Rosiglitazone 10^-5 M
[4] = Table 26, test compound 10^-7 M

| PPAR activity γ (relative value to control compound) (hPPARγ (LBD); [1]) | PPAR activity α (relative value to control compound) (hPPARα (LBD); [2]) | activation (hPPARδ (LBD)) [%] | Compound | other results |
| --- | --- | --- | --- | --- |
| Inactive | Inactive | 51.7 | Cc1cc(C(CCc2sc3cc(C(F)(F)F)ccc3c2C(C)C)=NO)ccc1OCC(=O)O [Example 16, 4-[1-Hydroxyimino-3-[3-isopropyl-6-(trifluoromethyl)-benzothiophen-2-yl]propyl]-2-methyl-phenoxyacetic acid] |  |
| 2.2% | Inactive | 66.1 | CCCCc1c(CCC(=O)c2ccc(CCC(=O)O)c(C)c2)sc2cc(C(F)(F)F)ccc12 [Example 10, 3-[2-Methyl-4-[3-[3-butyl-6-(trifluoromethyl)benzothiophen-2-yl]propionyl]phenyl]propionic acid] |  |
| Inactive | Inactive | 60.9 | Cc1cc(C(=O)CCc2sc3cc(C(F)(F)F)ccc3c2CC(C)C)ccc1CCC(=O)O [Example 11, 3-[2-Methyl-4-[3-[3-isobutyl-6-(trifluoromethyl)benzothiophen-2-yl]propionyl]phenyl]propionic acid] |  |
| Inactive | Inactive | 23 | Cc1cc(C(=O)CCc2sc3cc(C(F)(F)F)ccc3c2C)ccc1OCC(=O)O [Example 5, 2-Methyl-4-[3-[3-methyl-6-(trifluoromethyl)-benzothiophen-2-yl]propionyl]phenoxyacetic acid] |  |
| Inactive | Inactive | 45.9 | CON=C(CCc1sc2cc(C(F)(F)F)ccc2c1C(C)C)c1ccc(OCC(=O)O)c(C)c1 [Example 17, 4-[3-[3-Isopropyl-6-(trifluoromethyl)benzothiophen-2-yl]-1-methoxyiminopropyl]-2-methylphenoxyacetic acid] |  |
| Inactive | Inactive | 90.4 | Cc1cc(C(CCc2sc3cc(C(F)(F)F)ccc3c2C(C)C)=NO)ccc1CCC(=O)O [Example 13, 3-[4-[1-Hydroxyimino-3-[3-isopropyl-6-(trifluoromethyl)-benzothiophen-2-yl]propyl]-2-methylphenyl]propionic acid] |  |
| Inactive | Inactive | 51.4 | Cc1cc(C(=O)CCc2sc3cc(C(F)(F)F)ccc3c2C)ccc1CCC(=O)O [Example 7, 3-[4-[3-[3-Methyl-6-(trifluoromethyl)-benzothiophen-2-yl]propionyl]-2-methylphenyl]propionic acid] |  |
| Inactive | Inactive | 87.3 | Cc1cc(C(=O)CCc2sc3cc(C(F)(F)F)ccc3c2C(C)C)ccc1CCC(=O)O [Example 12, 3-[2-methyl-4-[3-[3-isopropyl-6-(trifluoromethyl)benzothiophen-2-yl]propionyl]phenyl]propionic acid] |  |
| 1.3% | Inactive | 83.5 | CCCc1c(CCC(=O)c2ccc(CCC(=O)O)c(C)c2)sc2cc(C(F)(F)F)ccc12 [Example 9, 3-[2-Methyl-4-[3-[3-propyl-6-(trifluoromethyl)benzothiophen-2-yl]propionyl]phenyl]propionic acid] |  |
| Inactive | Inactive | 81 | CCc1c(CCC(=O)c2ccc(CCC(=O)O)c(C)c2)sc2cc(C(F)(F)F)ccc12 [Example 8, 3-[4-[3-[3-Ethyl-6-(trifluoromethyl)benzothiophen-2-yl]propionyl]-2-methylphenyl]propionic acid] |  |

Further lines, the compound ahead of its results:

| Compound | PPAR activity γ (relative value to control compound) (hPPARγ (LBD); [1]) | PPAR activity α (relative value to control compound) (hPPARα (LBD); [2]) | activation (hPPARδ (LBD)) [%] | other results |
| --- | --- | --- | --- | --- |
| CCCc1c(CCC(=NO)c2cc(C)c(OCC(=O)O)cc2O)sc2cc(C(F)(F)F)ccc12 [Example 23, 5-Hydroxy-4-[1-hydroxyimino-3-[3-propyl-6-(trifluoromethyl)benzothiophen-2-yl]propyl]-2-methyl-phenoxyacetic acid] |  |  |  | PPAR activity γ (relative value to control compound) (hPPARγ (LBD); [3]): Inactive; PPAR activity α (relative value to control compound) (hPPARα (LBD); [4]): Inactive; activation at 0.1 µM (hPPARδ (LBD)): 5.1% |
| Cc1cc(C(=O)CCc2sc3cc(C(F)(F)F)ccc3c2C)ccc1OC(C)(C)C(=O)O [Example 6] |  | Inactive |  | PPAR activity γ (relative value to control compound) (hPPARγ (LBD)): Inactive; PPAR activity δ (relative value to control compound) (hPPARδ (LBD); Table 24, 100% = GW-501516 10^-7 M, CV-1 cells, approx. 40 h): 40.8% |
| Cc1cc(C(=O)CCc2sc3cc(C(F)(F)F)ccc3c2C(C)C)ccc1OCC(=O)O [Example 15, 4-[3-[3-Isopropyl-6-(trifluoromethyl)benzothiophen-2-yl]-propionyl]-2-methylphenoxyacetic acid] | Inactive | Inactive | 77.4 |  |
| CCCc1c(CCc2noc3cc(CCC(=O)O)c(C)cc23)sc2cc(C(F)(F)F)ccc12 [Example 26, 3-[5-Methyl-3-[2-[3-propyl-6-(trifluoromethyl)benzothiophen-2-yl]ethyl]benzisoxazol-6-yl]propionic acid] |  |  |  | PPAR activity γ (relative value to control compound) (hPPARγ (LBD); [3]): Inactive; PPAR activity α (relative value to control compound) (hPPARα (LBD); [4]): Inactive; activation at 0.1 µM (hPPARδ (LBD)): 88.8% |
| CCCc1c(CCC(=O)c2cc(C)c(OCC(=O)O)cc2O)sc2cc(C(F)(F)F)ccc12 [Example 22] |  |  |  | PPAR activity γ (relative value to control compound) (hPPARγ (LBD)): Inactive; PPAR activity α (relative value to control compound) (hPPARα (LBD); [4]): Inactive |
| Cc1cc(C(=O)CCc2sc3ccc(C(F)(F)F)cc3c2C)ccc1OC(C)(C)C(=O)O [Example 4, 2-Methyl-2-[2-methyl-4-[3-[3-methyl-5-(trifluoromethyl)-benzothiophen-2-yl]propionyl]phenoxy]propionic acid] | 9.0% |  | 19.2 |  |
| CCCc1c(CCc2noc3cc(OCC(=O)O)c(C)cc23)sc2cc(C(F)(F)F)ccc12 [Example 25, [5-Methyl-3-[2-[3-propyl-6-(trifluoromethyl)benzothiophen-2-yl]ethyl]benzisoxazol-6-yloxy]acetic acid] |  |  |  | PPAR activity γ (relative value to control compound) (hPPARγ (LBD); [3]): Inactive; PPAR activity α (relative value to control compound) (hPPARα (LBD); [4]): Inactive; activation at 0.1 µM (hPPARδ (LBD)): 87.4% |
| C=C(CCc1sc2cc(C(F)(F)F)ccc2c1C(C)C)c1ccc(CCC(=O)O)c(C)c1 [Example 14, 3-[4-[1-[2-[3-Isopropyl-6-(trifluoromethyl)-benzothiophen-2-yl]ethyl]vinyl]-2-methylphenyl]propionic acid] | Inactive | Inactive | 73 |  |
| Cc1cc(C(=O)CCc2sc3ccc(C(F)(F)F)cc3c2C)ccc1OCC(=O)O [Example 3, 2-Methyl-4-[3-[3-methyl-5-(trifluoromethyl)-benzothiophen-2-yl]propionyl]phenoxyacetic acid] | Inactive | Inactive | 4.4 |  |
| Cc1cc2c(CCc3sc4cc(C(F)(F)F)ccc4c3C(C)C)noc2cc1N(C)CC(=O)O [Example 20, N-[3-[2-[3-Isopropyl-6-(trifluoromethyl)benzothiophen-2-yl]ethyl]-5-methylbenzisoxazol-6-yl]-N-methylglycine] | Inactive |  | 88 |  |
| Cc1cc2c(CCc3sc4cc(C(F)(F)F)ccc4c3C(C)C)noc2cc1OCC(=O)O [Example 19, [3-[2-[3-Isopropyl-6-(trifluoromethyl)benzothiophen-2-yl]-ethyl]-5-methyl-benzisoxazol-6-yloxy]acetic acid] | Inactive | Inactive | 91.7 | EC50 (hPPARγ (LBD); Table 25, CV-1 cells, method of Example 29, read-out: PPAR activity (EC50) γ): > 10 µM; EC50 (hPPARα (LBD); Table 25, CV-1 cells, method of Example 29, read-out: PPAR activity (EC50) α): > 10 µM; EC50 (hPPARδ (LBD); Table 25, CV-1 cells, method of Example 29, read-out: PPAR activity (EC50) δ): 0.0048 µM; selectivity of PPAR δ-activating effect (hPPARδ (LBD); compared with GW-501516, from EC50 α, γ, δ of Table 25): superior to that of the GW-501516 |
| 2-[3-[2-[3-Isopropyl-6-(trifluoromethyl)benzothiophen-2-yl]ethyl]benzisoxazol-6-yloxy]propionic acid [Example 27] |  |  |  | PPAR activity γ (relative value to control compound) (hPPARγ (LBD); [3]): Inactive; PPAR activity α (relative value to control compound) (hPPARα (LBD); [4]): Inactive |
